These results are taken from ChEMBL document CHEMBL1133003, “GABA-Activated ligand gated ion channels: medicinal chemistry and molecular biology” (J Med Chem, 2000).

Assay [1] addresses T1, Gamma-aminobutyric acid receptor subunit rho-2 (Homo sapiens, UniProt P28476). In words: Activation of human rho2 GABA-C receptor at 34% of maximal GABA-induced response.
Assay [2] has as its target T2, Gamma-aminobutyric acid receptor subunit rho-1 (Homo sapiens, UniProt P24046). In words: Antagonist activity against rho-1 subunit GABA-C receptor expressed in Xenopus oocytes. The assay is classed as functional, cell-based. The note with it: Oocyte.
Assay [3] has as its target T2, Gamma-aminobutyric acid receptor subunit rho-1. In words: Partial agonist activity against human rho1 subunit GABA-C receptor expressed in Xenopus oocytes. Type of assay: functional, cell-based, Oocyte.
The target of assay [4] is T1, Gamma-aminobutyric acid receptor subunit rho-2. In words: Partial agonist activity against human rho-2 subunit GABA-C receptor expressed in Xenopus oocytes. The assay is classed as functional, cell-based, Oocyte.
Assay [5] has as its target GABA-A receptor; anion channel. In words: Affinity against recombinant Gamma-aminobutyric acid A (GABA-A) receptor. The assay is classed as protein-complex assay.
The target of assay [6] is GABA-A receptor; anion channel. In words: Competitive antagonist activity against Gamma-aminobutyric acid A (GABA-A) receptor. The assay is classed as functional.
The target in assay [7] is T2, Gamma-aminobutyric acid receptor subunit rho-1. In words: Partial agonist activity against rho-1 subunit GABA-C receptor expressed in Xenopus oocytes. Type of assay: functional, cell-based, Oocyte.
For assay [8], the target named is GABA-A receptor; anion channel. Briefly: Potent antagonist activity against Gamma-aminobutyric acid A (GABA-A) receptor from rat cortex RNA expressed in Xenopus oocytes. Type of assay: functional, cell-based. The note with it: oocyte.
In assay [9] the target is T2, Gamma-aminobutyric acid receptor subunit rho-1. In words: Partial agonist activity against rho-1 subunit GABA-C receptor expressed in Xenopus oocytes with low efficacy. Type of assay: functional, cell-based, Oocyte.
The target in assay [10] is T1, Gamma-aminobutyric acid receptor subunit rho-2. Briefly: Partial agonist activity with low efficacy against rho-2 subunit GABA-C receptor expressed in Xenopus oocytes. Type of assay: functional, cell-based, Oocyte.
The target of assay [11] is T2, Gamma-aminobutyric acid receptor subunit rho-1. In words: Full agonist activity against human rho-1 subunit GABA-C receptor expressed in Xenopus oocytes. Type of assay: functional, cell-based, Oocyte.
Assay [12] deals with T1, Gamma-aminobutyric acid receptor subunit rho-2. Briefly: Full agonist activity against human rho-2 subunit GABA-C receptor expressed in Xenopus oocytes. Type of assay: functional, cell-based, Oocyte.
The target of assay [13] is T2, Gamma-aminobutyric acid receptor subunit rho-1. Briefly: Partial agonist activity against rho-1 subunit GABA-C receptor expressed in Xenopus oocytes, low intrinsic activity (Im 3%). Type of assay: functional, cell-based, Oocyte.
Assay [14] has as its target T1, Gamma-aminobutyric acid receptor subunit rho-2. Briefly: Partial agonist activity against rho-2 subunit GABA-C receptor expressed in Xenopus oocytes, higher intrinsic activity (Im 38%). Type of assay: functional, cell-based, Oocyte.
Assay [15] deals with GABA-C receptor (Homo sapiens) (UniProt P28476+A8MPY1+P24046). Briefly: Antagonist activity against rho subunit Gamma-aminobutyric acid C (GABA-C) receptor expressed in Xenopus oocytes. Type of assay: functional, cell-based. The note with it: Oocyte.
In assay [16] the target is T2, Gamma-aminobutyric acid receptor subunit rho-1. In words: Partial agonist activity against human rho-1 subunit GABA-C receptor expressed in Xenopus oocytes. Type of assay: functional, cell-based, Oocyte.
The target of assay [17] is GABA-A receptor; anion channel. Briefly: Inhibitory activity against Gamma-aminobutyric acid A (GABA-A) receptor from rat cultured cortical neuron RNA expressed in Xenopus oocytes. The assay is classed as functional, cell-based. The note with it: oocyte.
Assay [18] concerns the target GABA-A receptor; anion channel. In words: Non-competitive antagonist activity against Gamma-aminobutyric acid A (GABA-A) receptor. The assay is classed as functional, Rattus norvegicus.
Assay [19] concerns the target GABA-A receptor; anion channel. In words: Antagonist activity against Gamma-aminobutyric acid A (GABA-A) receptor. Type of assay: functional, Rattus norvegicus.
For assay [20], the target named is T1, Gamma-aminobutyric acid receptor subunit rho-2. In words: Partial agonist activity against homomeric rho-2 subunit GABA-C receptor expressed in Xenopus oocytes. Type of assay: functional, cell-based, Oocyte.
The target of another assay is GABA-C receptor (Homo sapiens, UniProt A8MPY1+P24046+P28476). In words: Agonist activity against Gamma-aminobutyric acid type C (GABA-C) receptor derived from bovine retinal RNA expressed in Xenopus oocytes. The assay is classed as functional, cell-based, Bos taurus, Oocyte.

As a reminder, the EC50 is the concentration needed to bring the measured effect to its halfway point. Low values mean an effect from little substance, high ones a need for much substance. Broadly, the Kb is the equilibrium dissociation constant of an antagonist, usually derived from a functional assay. Lower therefore signals a more potent antagonist. What is called Ki is a measure of affinity in units of concentration, obtained from inhibition or displacement. As a reminder, the IC50 is the point on the concentration scale where inhibition reaches its midpoint. One may read the Kd as the concentration at which binding is half-saturated. A low value points to a tighter complex.

T1 sequence (P28476 whole entry): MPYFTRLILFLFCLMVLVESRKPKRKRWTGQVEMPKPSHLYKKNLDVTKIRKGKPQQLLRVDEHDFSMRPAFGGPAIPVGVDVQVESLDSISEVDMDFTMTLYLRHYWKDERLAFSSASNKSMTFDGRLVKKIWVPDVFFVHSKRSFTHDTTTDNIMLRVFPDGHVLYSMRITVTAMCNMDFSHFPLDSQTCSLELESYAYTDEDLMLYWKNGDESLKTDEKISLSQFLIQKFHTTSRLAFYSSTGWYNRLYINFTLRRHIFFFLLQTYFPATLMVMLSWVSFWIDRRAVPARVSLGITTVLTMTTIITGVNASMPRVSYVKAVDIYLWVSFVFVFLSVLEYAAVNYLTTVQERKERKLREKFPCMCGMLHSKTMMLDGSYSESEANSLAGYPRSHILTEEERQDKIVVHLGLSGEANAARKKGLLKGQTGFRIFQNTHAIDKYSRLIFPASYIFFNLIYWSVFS
T2 sequence (P24046 whole entry): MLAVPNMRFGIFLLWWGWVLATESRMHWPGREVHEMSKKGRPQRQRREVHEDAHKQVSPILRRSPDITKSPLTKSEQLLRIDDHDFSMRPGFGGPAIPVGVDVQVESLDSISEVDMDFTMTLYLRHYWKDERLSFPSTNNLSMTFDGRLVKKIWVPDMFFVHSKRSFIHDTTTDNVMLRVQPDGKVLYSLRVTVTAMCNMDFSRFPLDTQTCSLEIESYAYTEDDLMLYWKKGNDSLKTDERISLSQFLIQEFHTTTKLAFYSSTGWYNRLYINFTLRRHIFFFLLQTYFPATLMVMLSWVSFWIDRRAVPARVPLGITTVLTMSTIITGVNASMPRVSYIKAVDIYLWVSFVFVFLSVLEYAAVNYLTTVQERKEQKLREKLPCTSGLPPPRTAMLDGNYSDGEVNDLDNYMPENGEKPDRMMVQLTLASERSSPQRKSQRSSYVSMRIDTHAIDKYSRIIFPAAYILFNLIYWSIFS
Sequence of GABA-C receptor (P28476 whole entry): as the sequence (P28476 whole entry) above
Sequence of GABA-C receptor (A8MPY1 whole entry): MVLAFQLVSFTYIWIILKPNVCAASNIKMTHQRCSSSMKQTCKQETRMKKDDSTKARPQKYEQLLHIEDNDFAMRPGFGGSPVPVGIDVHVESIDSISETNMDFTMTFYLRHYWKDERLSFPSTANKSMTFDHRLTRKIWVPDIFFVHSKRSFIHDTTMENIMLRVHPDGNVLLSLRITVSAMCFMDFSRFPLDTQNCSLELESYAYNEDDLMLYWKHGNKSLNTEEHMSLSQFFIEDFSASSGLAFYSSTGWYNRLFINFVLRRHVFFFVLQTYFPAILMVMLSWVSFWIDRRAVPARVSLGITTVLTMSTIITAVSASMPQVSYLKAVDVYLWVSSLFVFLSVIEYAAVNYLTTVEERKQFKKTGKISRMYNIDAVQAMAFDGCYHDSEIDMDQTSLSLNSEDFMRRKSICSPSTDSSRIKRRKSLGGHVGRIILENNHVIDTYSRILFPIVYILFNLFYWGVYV
Sequence of GABA-C receptor (P24046 whole entry): as the sequence (P24046 whole entry) above
Sequence of GABA-C receptor (Homo sapiens) (A8MPY1 whole entry, looked up): as the sequence (A8MPY1 whole entry) above
Sequence of GABA-C receptor (Homo sapiens) (P24046 whole entry, looked up): as the sequence (P24046 whole entry) above
Sequence of GABA-C receptor (Homo sapiens) (P28476 whole entry, looked up): as the sequence (P28476 whole entry) above

`C/C(=C\CN)C(=O)O`: the EC50 in assay [1] stood at 101 µM. The same compound had a Kb in assay [2] of 45 µM.

Take `NC/C=C\C(=O)O`: the EC50 stood at 74 µM in assay [3] and 70 µM in assay [4].

On to `O=c1cc(-c2cccc([N+](=O)[O-])c2)oc2cccc(Br)c12`, for which the Ki in assay [5] came to 0.03 µM.

In assay [6], `c1ccc2c(NCCCCCCCNc3c4c(nc5ccccc35)CCCC4)c3c(nc2c1)CCCC3` showed an IC50 of 6 µM.

With `NC/C=C(\F)C(=O)O`, in [7], it took 2.43 µM to reach a half-maximal effect (EC50).

As to `O=S(=O)(O)C1CCNCC1`, the affinity in [8], expressed as Kd, was 104 µM.

As to `NC[C@@H]1C[C@@H]1C(=O)O` (relative stereo), the EC50 in [9] was determined as 20 µM; in assay [10] it was 17.5 µM; in assay [11], 68 µM; in [12], 34.5 µM.

With `COC(=O)[C@H]1[C@@H](OC(=O)c2ccccc2)C[C@@H]2CC[C@H]1N2C` [COCAINE], in assay [5], the IC50 was found to be 127 µM.

In [3], `NCCCS(=O)O` [HOMOHYPOTAURINE] showed an EC50 of 4.6 µM.

As to `O=C(O)Cc1c[nH]cn1` [IMIDAZOLE ACETIC ACID], the EC50 in [13] is 16 µM; in [14] it was 3 µM. Further, in [15], the Kb stood at 1.5 µM.

As for `NCc1cc(=O)[nH]o1` [MUSCIMOL], the results for the Kd in assay [4] and in assay [16] were 1.4 µM and 2.3 µM, respectively.

Compound `CCCCCCCC/C=C\CCCCCCCC(N)=O` [OLEAMIDE] registered an EC50 in assay [17] of 15 µM.

`Cc1nccn1CC1CCc2c(c3ccccc3n2C)C1=O` (centres undefined) [ONDANSETRON]: the IC50 in assay [18] came out at 10 µM.

Compound `Cc1ccc2c(c1)c1c3n2CCNC3CCC1` (centres undefined) [PIRLINDOLE] showed an EC50 in assay [19] of 12 µM.

On to `NC/C=C/C(=O)O` [t-4-AMINOCROTONIC ACID (TACA)], for which the EC50 in assay [20] worked out at 0.4 µM. In addition, the dissociation constant (Kd) at GABA-C receptor came out at 0.6 µM.
